Here are results for 15 compounds from US4548818A, “Composition and methods for the treatment of chronic obstructive airway disease and cardiac disease using 3-alkylxanthines” (priority 1978, dated 1985).

One data set concerns Guinea-pig heart. The data set is described as follows: Isolated guinea-pig hearts (Langendorff), chronotropic potency. The following applies: Table II; positive chronotropic potency; theophylline = 1. As for the experimental part: From the bled guinea-pigs, the hearts were immediately removed and perfused with oxygenated Krebs solution at 37° according to Langendorff. The heart was mounted in a thermostatically controlled organ bath (25 ml) containing Krebs solution. A saline-filled, open-end polyethylene catheter was inserted into the right ventricle through the pulmonary artery. The catheter was fixed to the pulmonary artery by a ligature just above the valvular plane. It was connected to a pressure transducer (P23 AC), making it possible to record changes in intraventricular pressure. From these, the contraction frequency was obtained. Drugs were given as single bolus injections into the perfusion solution.
(§1) The left column lists molar potency ratios for bronchodilatation between theophylline and various xanthine compounds. Toxic symptoms occuring before death in mice receiving constant rate infusion of drug i.v. are accounted for in the middle column. […] The far right column indicates cardiotonic activity as positive chronotropic potency.

Excerpt in data set [1]: as §1
The test system of a further data set is Guinea-pig trachea. In words: Isolated guinea-pig trachea (relaxation of carbacholine-contracted tracheal muscle). The following applies: >1 more potent than theophylline; for Guinea-Pig trachea Potency rations of theophylline: Table II, molar potency ratio from EC50 values (50% maximum response), theophylline = 1 by definition, carbacholine 0.1 μg/ml; for Guinea-pig Tracheal Preparation Potency: Table III, potency ratio from EC50 values, theophyllin = 1 by definition. The method, then: Guinea-pigs of both sexes, weighing between 150 and 250 g, were killed by a blow on the head and bled. The trachea was removed and cut spirally yielding one or two preparations. The tracheal preparations were mounted in organ baths containing Krebs solution maintained at 37° C. and bubbled with carbogen (95% O2 +5% CO2). Isometric tension reflecting the activity in circular tracheal muscle was recorded by means of a force displacement transducer. Initial tension was set at 0.5 g which was the approximate basal tension kept during the experiment. Evaluation of relaxant effects was done when the preparations had contracted to a stable tension by the addition of carbacholine 0.1 μg/ml to the bath. […] After washing out the drugs the trachea resumed its basal tone and was left to stabilize for at least 15 min. before the next drug evaluation was performed. Between two evaluations of theophylline the effect of the test drug was examined and its EC50 value was compared with the mean of the previous and following EC50 values of theophylline.
as §1
The guinea-pig trachea were prepared as was discribed previously. Isomeric tension reflecting the activity in circular tracheal muscle was recorded by a force displacement transducer.

Data set [2] in a line: Acute toxicity studies in mice (intravenous and oral). In kind it is in vivo, male NMRI mice. To be noted: i.v. or oral, observed 14 days. As for the experimental part: Male NMRI mice, weighing 20-26 g. starved for 6 h were used. The compounds, dissolved in 0.5M NaOH and 0.85% NaCl-solution (pH 10.6-12.1) were administered as follows:
(a) intravenously, 0.1 ml/10 g at an injection rate of 0.3 ml per minute
At least seven dose levels, doses increasing in a geometric progression with a factor 1.2, were examined. Each dose was given to 5 animals. […] The position of extremities in dead animals indicated whether they had died in convulsions or not.

The mark [3] stands for this setting: constant rate i.v. infusion, type of convulsion as in the effects column.
Setting [4] is: toxic symptoms before death, constant rate i.v. infusion.

Where two headings read alike, the source gives them in different places.

Regarding `Cn1c(=O)c2c(ncn2C)n(C)c1=O` [Caffeine, caffeine, reference compound], in the data set on Guinea-pig heart, the “Guinea-Pig heart Potency ratios of theophylline, Chronotrop” value (“Guinea-Pig heart Potency ratios” for short) amounted to 0.5. In data set [1] (constant rate i.v. infusion), the “Convulsion test mice i.v., Death” value was 391.7 ± 17.7 mg/kg i.v. The “Convulsion test mice i.v., number of animals with convulsions / animals tested” value was 20/20 in data set [1] (setting [3]) and 20 out of 20 in data set [1] (constant rate i.v. infusion, type of convulsion as in the effects column, listed as caffeine). For the same compound, the “Convulsion test mice i.v., Effects” value in data set [1] (setting [4]) is “tonic conv”; in data set [1] (toxic symptoms before death, constant rate i.v. infusion, listed as caffeine), “consistently produced tonic convulsions”. The “Guinea-Pig trachea Potency rations of theophylline” value (“Guinea-Pig trachea Potency rations” for short) with Guinea-pig trachea is reported as 1.
Take `CC(C)(C)Cn1c(=O)[nH]c(=O)c2[nH]cnc21` [D 4034, 3,7-dihydro-3-(2,2-dimethylpropyl)-1H-purine-2,6-dione]: in the data set with Guinea-pig heart, the “Guinea-Pig heart Potency ratios” value is on record as 3. In data set [1] (constant rate i.v. infusion), the “Convulsion test mice i.v., Death” value turned out to be 519.1 ± 16.6 mg/kg i.v. Also, in the data set on Guinea-pig trachea, the “Guinea-Pig trachea Potency rations” value was found to be 3 and the “Guinea-pig Tracheal Preparation Potency” value is listed as 3.0.
Regarding `Cc1nc2c([nH]1)c(=O)[nH]c(=O)n2CC(C)(C)C` [D 4070, 3,7-dihydro-3-(2,2-dimethylpropyl)-8-methyl-1H-purine-2,6-dione], the “Guinea-Pig heart Potency ratios” value in the data set with Guinea-pig heart is 1.5. The “Convulsion test mice i.v., Death” value in data set [1] (constant rate i.v. infusion) was 693.3 ± 22.2 mg/kg i.v. For the same compound, the “Convulsion test mice i.v., Effects” value in data set [1] (mouse, in vivo, iv) is recorded as “loss of balance”. In the data set with Guinea-pig trachea, the “Guinea-Pig trachea Potency rations” value turned out to be 1.8 and the “Guinea-pig Tracheal Preparation Potency” value is 1.8.
`O=c1[nH]c(=O)n(CCO)c2nc[nH]c12` [D 4077, reference compound]: the “Guinea-pig Tracheal Preparation Potency” value in the data set on Guinea-pig trachea is 0.1.
With `CC(O)Cn1c(=O)[nH]c(=O)c2[nH]cnc21` (stereo not drawn) [D 4083, reference compound], the “Guinea-pig Tracheal Preparation Potency” value with Guinea-pig trachea is 0.1.
Same read-out and setting: as for `Cc1nc2c([nH]1)c(=O)[nH]c(=O)n2CC(C)O` (stereo not drawn) [D 4125, reference compound], the figure is 0.4.
Take `O=c1[nH]c(=O)n(C2CCCC2)c2nc[nH]c12` [D 4132, 3-cyclopentyl-3,7-dihydro-1H-purine-2,6-dione]: the “Guinea-Pig heart Potency ratios” value in the data set on Guinea-pig heart was determined as 3.4. The “Convulsion test mice i.v., Death” value in data set [1] (constant rate i.v. infusion) is 593 ± 21.9 mg/kg i.v. Further, the “Guinea-Pig trachea Potency rations” value with Guinea-pig trachea turned out to be 5.65.
With `Cc1nc2c([nH]1)c(=O)[nH]c(=O)n2C1CCCC1` [D 4134, 3-cyclopentyl-3,7-dihydro-8-methyl-1H-purine-2,6-dione], the “Guinea-Pig trachea Potency rations” value in the data set on Guinea-pig trachea was determined as 5.85.
On to `Cc1nc2c([nH]1)c(=O)[nH]c(=O)n2CC1CCCCC1` [D 4137, 3,7-dihydro-8-methyl-3-cyclohexylmethyl-1H-purine-2,6-dione], for which the “Guinea-Pig heart Potency ratios” value in the data set on Guinea-pig heart came to 10. In data set [1] (constant rate i.v. infusion), the “Convulsion test mice i.v., Death” value stood at 493.1 ± 19.4 mg/kg i.v. Further, in the data set on Guinea-pig trachea, the “Guinea-Pig trachea Potency rations” value is 4.
The corresponding values for `O=c1[nH]c(=O)n(CC2CCCCC2)c2nc[nH]c12` [D 4138, 3,7-dihydro-3-cyclohexylmethyl-1H-purine-2,6-dione] are 15, 543.6 ± 31.7 mg/kg i.v and 5.
`O=c1[nH]c(=O)n(C2CC2)c2nc[nH]c12` [D 4161, 3-cyclopropyl-3,7-dihydro-1H-purine-2,6-dione]: the “Convulsion test mice i.v., Death” value in data set [1] (constant rate i.v. infusion) came to 1030 ± 39.3 mg/kg i.v. Further, the “Convulsion test mice i.v., number of animals with convulsions / animals tested” value in data set [1] (mouse, in vivo, iv) was 1/10. Besides, in the data set on Guinea-pig trachea, the “Guinea-Pig trachea Potency rations” value is on record as 0.5.
Take `O=c1[nH]c(=O)n(C2CCC2)c2nc[nH]c12` [D 4164, 3-cyclobutyl-3,7-dihydro-1H-purine-2,6-dione]: in the data set with Guinea-pig heart, the “Guinea-Pig heart Potency ratios” value is 2.1. For the same compound, in data set [1] (constant rate i.v. infusion), the “Convulsion test mice i.v., Death” value turned out to be 519.2 ± 16.86 mg/kg i.v. The “Convulsion test mice i.v., number of animals with convulsions / animals tested” value in data set [1] (mouse, in vivo, iv) was 3/10. The “Guinea-Pig trachea Potency rations” value in the data set with Guinea-pig trachea was 3.8.
On to `Cc1nc2c([nH]1)c(=O)[nH]c(=O)n2CC(C)C` [D 4169, 3,7-dihydro-8-methyl-3-(2-methylpropyl)-1H-purine-2,6-dione], for which, in the data set on Guinea-pig trachea, the “Guinea-pig Tracheal Preparation Potency” value turned out to be 3.3.
The same measure, in the same setting: the result for `O=c1[nH]c(=O)n(CCCO)c2nc[nH]c12` [D 4184, reference compound] reads 0.1.
Take `Cn1c(=O)c2[nH]cnc2n(C)c1=O` [Theophylline, theophylline, reference compound]: in data set [1] (constant rate i.v. infusion), the “Convulsion test mice i.v., Death” value is 446.3 ± 9.6 mg/kg i.v. The “Convulsion test mice i.v., number of animals with convulsions / animals tested” value is given as 30/30 in data set [1] (setting [3]) and 30 out of 30 in data set [1] (constant rate i.v. infusion, type of convulsion as in the effects column, listed as theophylline). The “Convulsion test mice i.v., Effects” value in data set [1] (setting [4]) is given as “tonic conv”; in data set [1] (toxic symptoms before death, constant rate i.v. infusion, listed as theophylline), “consistently produced tonic convulsions”. In data set [2], the “Convulsive activity in acute toxicity studies” value is listed as “repeatedly shown to occur”. Further, in the data set on Guinea-pig trachea, the “Guinea-pig Tracheal Preparation Potency” value was found to be 1.0.
